SMILES strings stand for the structures.

Sequence of DLK (Q12852 1-520): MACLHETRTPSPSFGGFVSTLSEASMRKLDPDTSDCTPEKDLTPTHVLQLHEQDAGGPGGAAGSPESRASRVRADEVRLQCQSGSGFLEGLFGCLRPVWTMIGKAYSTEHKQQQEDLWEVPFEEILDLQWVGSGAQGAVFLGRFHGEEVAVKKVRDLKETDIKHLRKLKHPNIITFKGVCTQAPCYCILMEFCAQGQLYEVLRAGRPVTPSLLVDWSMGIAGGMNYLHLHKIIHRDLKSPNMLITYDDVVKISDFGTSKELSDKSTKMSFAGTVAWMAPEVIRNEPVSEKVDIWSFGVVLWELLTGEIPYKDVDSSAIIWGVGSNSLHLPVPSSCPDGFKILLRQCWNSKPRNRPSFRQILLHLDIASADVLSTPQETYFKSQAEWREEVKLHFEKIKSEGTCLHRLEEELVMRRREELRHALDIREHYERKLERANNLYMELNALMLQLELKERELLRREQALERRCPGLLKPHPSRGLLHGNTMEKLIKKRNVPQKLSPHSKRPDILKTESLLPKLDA

The test addresses DLK (Homo sapiens (Human), UniProt Q12852). As to the kind of experiment: DLK TR-FRET Inhibition Assay. In kind it is biochemical. Particulars: N-terminally GST-tagged DLK (catalytic domain amino acid 1-520), MKK4 K131M substrate, 30 μM ATP; read-out: DLK HTRF Ki. As to the method:
DLK kinase reactions (20 μL) containing 5 nM N-terminally GST-tagged DLK (catalytic domain amino acid 1-520) (Carna Bioscience), 40 nM N-terminally HIS tagged MKK4 K131M substrate, and 30 μM ATP in kinase reaction buffer (50 mM HEPES, pH 7.5, 0.01% Triton X-100, 0.01% Bovine γ-Globulins, 2 mM DTT, 10 mM MgCl2 and 1 mM EGTA), and testing compound 1:3 serial diluted starting at 20 uM were incubated at ambient temperature for 60 minutes in 384 well OptiPlate (Perkin Elmer). To quench kinase reactions and detect phosphorylated MKK4, 15 μL of TR-FRET antibody mixture containing 2 nM anti-phosphorylated MKK4 labeled with Europium cryptate (Cisbio) and 23 nM anti-HIS labeled with D2 (Cisbio) in detection buffer (25 mM Tris pH 7.5, 100 mM NaCl, 100 mM EDTA, 0.01% Tween-20, and 200 mM KF) was added to the reaction mixture. The detection mixture was incubated for 3 hours at ambient temperature and the TR-FRET was detected with an EnVision multilabel plate reader (Perkin-Elmer) using the LANCE/DELFIA Dual Enh label from Perkin-Elmer (excitation filter: UV2 (TRF) 320 and emission filters: APC 665 and Europium 615).
(In general: In TR-FRET formats the signal depends on donor and acceptor labels being close together.)
By Ki is commonly meant a measure of affinity in units of concentration, obtained from inhibition or displacement. Turning to `CC1(C)OCCn2c1nc1c(N3CC4CCC3C4)nc(-c3cnc4ccnn4c3)nc12` (stereo not drawn) [Example 37, 1-(2-Aza-bicyclo[2.2.1]hept-2-yl)-8,8-dimethyl-3-pyrazolo[1,5-a]pyrimidin-6-yl-5,6-dihydro-8H-7-oxa-2,4,4b,9-tetraaza-fluorene], the Ki was 663 nM. The value for `CCN(c1nc(-c2cnc(N)nc2)nc2c1nc1n2CCOC1(C)C)C1CCC1` [Example 62, 2-(2-aminopyrimidin-5-yl)-N-cyclobutyl-N-ethyl-6,6-dimethyl-8,9-dihydro-6H-[1,4]oxazino[4,3-e]purin-4-amine] was 86.7 nM. As for `CC1(C)OCCn2c1nc1c(C3CC3)nc(-c3cnc(N)nc3)nc12` [Example 122], the figure is 307 nM; as for `CC1(C)OCCn2c1nc1c(N3C4CCC3CC4)nc(-c3cnc(N)nc3)nc12` [Example 56, 5-(4-(7-azabicyclo[2.2.1]heptan-7-yl)-6,6-dimethyl-8,9-dihydro-6H-[1,4]oxazino[4,3-e]purin-2-yl)pyrimidin-2-amine], 339 nM.

As to `C[C@H]1COC(C)(C)c2nc3c(N4CC5CC4C5)nc(-c4cnc(N)nc4)nc3n21` (single isomer, unassigned) [Example 97], the Ki stood at 62 nM. Take `CC1(c2nc(-c3cnc(N)nc3)nc3c2nc2n3CCOC2(C)C)CC1` [Example 95, 5-(6,6-dimethyl-4-(1-methylcyclopropyl)-8,9-dihydro-6H-[1,4]oxazino[4,3-e]purin-2-yl)pyrimidin-2-amine]: the Ki was 476 nM. The value for `CC[C@@]1(C)OCCn2c1nc1c(N3CC4CC3C4)nc(-c3cnc(N)nc3)nc12` (single isomer, unassigned) [Example 93] was 131 nM; that for `COC1CN(c2nc(-c3cnc(N)c(OC(F)F)c3)nc3c2nc2n3CCCOC2)C1` [Example 136, 3-(difluoromethoxy)-5-(4-(3-methoxyazetidin-1-yl)-6,8,9,10-tetrahydro-[1,4]oxazepino[4,3-e]purin-2-yl)pyridin-2-amine] was 687 nM. As for `C[C@@H]1COC(C)(C)c2nc3c(C4CC4)nc(-c4cnc(N)nc4)nc3n21` (single isomer, unassigned) [Example 101], the figure is 102 nM; as for `CC1(C)OCCn2c1nc1c(C3(C#N)CCC3)nc(-c3cnc(N)nc3)nc12` [Example 103, 1-(2-(2-aminopyrimidin-5-yl)-6,6-dimethyl-8,9-dihydro-6H-[1,4]oxazino[4,3-e]purin-4-yl)cyclobutanecarbonitrile], 1000 nM.

For `CC1(C)OCCn2c1nc1c(C3CC3)nc(-c3cnc4c(c3)CCN4)nc12` [Example 125, 4-cyclopropyl-2-(2,3-dihydro-1H-pyrrolo[2,3-b]pyridin-5-yl)-6,6-dimethyl-8,9-dihydro-6H-[1,4]oxazino[4,3-e]purine], the Ki is 626 nM. Take `Cc1c[nH]c2ncc(-c3nc(N4CC(O)C4)c4nc5n(c4n3)CCOC5(C)C)cc12` [Example 32, 1-[8,8-Dimethyl-3-(3-methyl-1H-pyrrolo[2,3-b]pyridin-5-yl)-5,6-dihydro-8H-7-oxa-2,4,4b,9-tetraaza-fluoren-1-yl]-azetidin-3-ol]: the inhibitory constant (Ki) was found to be 13.1 nM. As for `Cc1c[nH]c2ncc(-c3nc(N4CC5CCC4C5)c4nc5n(c4n3)CCOC5(C)C)cc12` (stereo not drawn) [Example 34, 1-(2-Aza-bicyclo[2.2.1]hept-2-yl)-8,8-dimethyl-3-(3-methyl-1H-pyrrolo[2,3-b]pyridin-5-yl)-5,6-dihydro-8H-7-oxa-2,4,4b,9-tetraaza-fluorene], the figure is 31.8 nM; as for `CCc1n[nH]c2ncc(-c3nc(N4CC5CC4C5)c4nc5n(c4n3)CCOC5(C)C)cc12` [Example 20, 1-(2-Aza-bicyclo[2.1.1]hex-2-yl)-3-(3-ethyl-1H-pyrazolo[3,4-b]pyridin-5-yl)-8,8-dimethyl-5,6-dihydro-8H-7-oxa-2,4,4b,9-tetraaza-fluorene], 161 nM. For `CC1(C)OCCn2c1nc1c(N3CC4CC3C[C@H]4F)nc(-c3cnc(N)nc3)nc12` (single isomer, unassigned) [Example 142], the Ki was 216 nM.

(Values after patent US10131675B2 (Genentech, Inc., priority 2015, dated 2018).)
